In series [1] the test system is L1210 cells. Kind of series: in vitro. The conditions noted are these: for reduction of nolatrexed LC90: absence of salvageable thymidine, abstract; for CC50: Mus musculus, L1210, 16 h, read-out: LC50. From the text:
(§1) In particular, inhibition of thymidylate synthase (TS) is an attractive target for antimetabolite chemotherapy because thymine is the only nucleobase found exclusively in DNA and TS is a key enzyme, possibly the rate-limiting step, in DNA synthesis. One locus of action of 5-fluorouracil (5-FU), which is widely used for the treatment of colorectal, breast and head-and- neck cancer, is TS inhibition following its intracellular conversion to 5-FdUMP. […] Inhibition of TS results in the depletion of intracellular dTTP and, as a result of elevated dUMP levels, an accummulation of dUTP. […] In addition, release of nucleic acids from dead cells may result in high local concen- trations of salvageable nucleosides and bases in tumours. Salvage of pre-formed nucleosides is dependent on uptake across the plasma membrane into the cell. At physiological nucle- oside concentrations the principal mode of nucleoside uptake is via the es and ei equilibrative carriers, described as such on the basis of their sensitivity (es) or insensitivity (ei) to the transport inhibitor nitrobenzylmercaptopurine riboside (NBMPR). […] In addition, potentiation of the cytotoxicity of 5-FU was investigated. […] All other chemicals were obtained from Sigma unless stated otherwise. […] For growth inhibition and cytotoxicity assays, cells were adapted to grow in RPMI medium supplemented with 10% (v/v) dialysed serum (dialysed for 24 h at 4C against two changes of 9 volumes of phosphate-buffered saline (PBS) containing 1 g activated charcoal L-1 and a further two changes of 9 volumes of PBS) to remove thymidine. […] The uptake of 100 M thymidine by […] was followed at 2-second intervals over a 12-second time course in the presence or absence of inhibitor in 1% or 5% (v/v) DMSO. […] Exponentially growing L1210 cells were washed with and resus- pended in ice-cold transport buffer (130 mM sodium chloride, 5 mM potassium chloride, 1 mM magnesium chloride, 5 mM NaH2 PO4 , 10 mM glucose and 10 mM HEPES pH 7.4) at 2-4 x 10^7 cells ml-1 . […] Transport was initiated by adding 50 l of 300 M thymidine in transport buffer, containing 25 Ci ml-1 [methyl-3 H]thymidine (Sp. Act. 1.5-2.2 TBq mmol-1; Amersham, UK) and 2 Ci ml-1 [U-14 C]sucrose (17-27 GBq mmol-1; Amersham), to each tube in turn at 1-second intervals, giving final concentrations of: […] in transport buffer 5 mg ml-1 AGP, 100 M thymidine and 1% or 5% (v/v) DMSO inhibitor. […] The tubes were immediately centrifuged at 12 000g for 2 min at room temperature causing the cells to pass through the oil and into the KOH. […] Cell number and viability in each assay was determined by haemocytometer counting using trypan blue exclu- sion. After centrifugation the tubes were capped and cut in the oil layer such that the bottom portion (cells solubilized in KOH) fell into a 20 ml scintillation vial. […] The rate of thymidine uptake in the presence and absence of inhibitor was calculated by unweighted linear regres- sion analysis of thymidine uptake (pmol 10-6 cells) vs time (seconds) using GraphPad PRISMTM software (GraphPad Software Inc. San Diego, CA, USA). […] Kt and Tmax values were calculated using the equation describing a one-site binding hyperbola, fitted using GraphPad PRISM software. […] The DMSO concentration was controlled so as to be present at 1% (v/v) in the final incubation. Replicate aliquots of the remaining cell suspension were counted to obtain a time zero cell count.

Another series can be described thus: in vitro. The following applies: mouse.
Description: as §1

The test system of series [2] is thymidine transport (nucleoside transporter) in L1210 cells. Nature of the series: Inhibition kinetics of thymidine transport (Kt, Tmax, Dixon plot Ki). The conditions noted are these: for Ki: read-out: Ki for inhibition of thymidine uptake, L1210, abstract.
Description: as §1

Series [3] concerns L1210 cells. Kind of series: Growth inhibition assay, CB3717 with or without thymidine and transport inhibitor, 48 h cell count. It counts as cell-based, murine.
The subject of series [4] is thymidine uptake (nucleoside transport, es and ei equilibrative carriers) in L1210 cells. Nature of the series: Nucleoside transport inhibition assay (thymidine uptake, rapid mixing technique). It counts as cell-based, murine. From the text:
Antimetabolite inhibitors of de novo purine and pyrimidine synthesis are used extensively in cancer chemotherapeutic regimes (Schilsky, 1992). In particular, inhibition of thymidylate synthase (TS) is an attractive target for antimetabolite chemotherapy because thymine is the only nucleobase found exclusively in DNA and TS is a key enzyme, possibly the rate-limiting step, in DNA synthesis. One locus of action of 5-fluorouracil (5-FU), which is widely used for the treatment of colorectal, breast and head-and- neck cancer, is TS inhibition following its intracellular conversion to 5-FdUMP. […] Inhibition of TS results in the depletion of intracellular dTTP and, as a result of elevated dUMP levels, an accummulation of dUTP. This nucleotide pool imbalance contributes to DNA strand breakage and cell death (Curtin et al, 1991). […] Furthermore, resistance to antimetabolities mediated by nucleoside salvage may increase with malignancy (Fox et al, 1991; Kinsella and Harran, 1991). In addition, release of nucleic acids from dead cells may result in high local concen- trations of salvageable nucleosides and bases in tumours. Salvage of pre-formed nucleosides is dependent on uptake across the plasma membrane into the cell. At physiological nucle- oside concentrations the principal mode of nucleoside uptake is via the es and ei equilibrative carriers, described as such on the basis of their sensitivity (es) or insensitivity (ei) to the transport inhibitor nitrobenzylmercaptopurine riboside (NBMPR). […] Two antifolate TS inhibitors were selected for study: the classical antifolate, CB3717 (N10 -pro- pargyl-5,8-dideazafolic acid), and the non-classical antifolate TS inhibitor, nolatrexed (AG337, Thymitaq, 3,4-dihydro-2-amino- 6-methyl-4-oxo-5-(4-pyridylthio)-quinazoline dihydrochloride) (Webber et al, 1996). In addition, potentiation of the cytotoxicity of 5-FU was investigated. […] MATERIALS AND METHODS Drugs CB3717 (a gift from Zeneca Pharmaceuticals, Alderley Park, UK) was dissolved in 0.15 M sodium hydrogen carbonate and stored at 4C. […] All other chemicals were obtained from Sigma unless stated otherwise. Cell culture Murine leukaemia L1210 cells were used because their nucleoside transport characteristics have been well defined (Crawford et al, 1990). Cells were maintained as exponentially growing cultures (< 8 x 10^5 cells ml-1 ) in RPMI-1640 medium supplemented with 10% (v/v) fetal calf serum (Sigma), at 37C in an atmosphere of 5% carbon dioxide in air. […] For growth inhibition and cytotoxicity assays, cells were adapted to grow in RPMI medium supplemented with 10% (v/v) dialysed serum (dialysed for 24 h at 4C against two changes of 9 volumes of phosphate-buffered saline (PBS) containing 1 g activated charcoal L-1 and a further two changes of 9 volumes of PBS) to remove thymidine. […] Cells were routinely tested to exclude mycoplasma contamination (Chen, 1977). Nucleoside transport inhibition assay Thymidine uptake was assayed in L1210 cells using a modifica- tion of the rapid mixing technique of Wohlheuter et al (1978). The uptake of 100 µM thymidine by […] was followed at 2-second intervals over a 12-second time course in the presence or absence of inhibitor in 1% or 5% (v/v) DMSO. In experiments to determine the effect of AGP, the uptake of thymidine was also measured in the presence of 5 mg ml-1 human AGP (Sigma), which is the upper limit of plasma AGP concentrations in cancer patients, i.e. approx- imately 125 M (Kremer et al, 1988).

The subject of the next series is human cancer cell lines. More on the design: method as in P Smith, manuscript in preparation. The following applies: ref P Smith, manuscript in preparation; cited from earlier work.
The mark [5] stands for this setting: LC50 alone/LC50 + 1 μM inhibitor.
[6] abbreviates: 1 μM transport inhibitor, data not shown.
Where [7] appears, read: 10 μM transport inhibitor, 48 h, normalized to inhibitor alone.

The values below come from article PMC2363125 (British Journal of Cancer, 1999).

Values joined by “and” are separate entries in the source; they are usually repeats but may differ in a detail not shown here. Equal values may be shown once. “Also recorded” adds a separate entry of the source.

For the compound `OCCN(CCO)c1nc(N2CCCCC2)c2nc(N(CCO)CCO)nc(N3CCCCC3)c2n1` [Dipyridamole, 2,6-bis-(diethanolamino)-4,8-di-piperidino-pyrimidopyrimidine], in the series with L1210 cells [1] (setting [5]), the “EF50 (enhancement factor), nolatrexed” value was 1.3. For the same compound, the “EF90 (enhancement factor), nolatrexed” value with L1210 cells [1] (LC90 alone/LC90 + 1 μM inhibitor, listed as DP) was 7.5 and 6.1. Besides, the “reduction of nolatrexed LC90” value with L1210 cells [1] is listed as “> threefold”. Besides, in the series on L1210 cells [1] (mouse), the “potentiation of 5-FU cytotoxicity” value was “Significant potentiation”. Moreover, in the series “in vitro”, the activity at 16 h, 1 µM is 100%. Moreover, the “type of inhibition of thymidine uptake” value in series [2] (L1210) is given as “mixed-type inhibition”. For the same compound, the “apparent Tmax of thymidine transport” value in series [2] (in the presence of 0.3 μM inhibitor, L1210) is recorded as 8.4 pmol/10-6 cells/s. Besides, in series [2], the Ki (usually a dissociation constant, usually derived from enzyme kinetics or from competition with a known ligand) was 280 nM. Moreover, in the series on L1210 cells [3] (setting [6]), the “potentiation of CB3717 growth inhibition” value is reported as “modest potentiation” and the “reversal of thymidine rescue from CB3717 growth inhibition” value was “partial reversal”. For the same compound, in the series on L1210 cells [3] (setting [7]), the “% Control cell growth + 3 M CB3717, + 1 M TdR” value was 4%; the “% Control cell growth + 3 M CB3717, no TdR” value is listed as 4%; the “% Control cell growth + 10 M CB3717, + 1 M TdR” value is 1%; the “% Control cell growth + 10 M CB3717, no TdR” value is listed as 0%.
For the compound `COc1ccc(CNc2nc(N(CCO)CCO)nc3c(NCc4ccc(OC)cc4)nc(N(CCO)CCO)nc23)cc1` [NU3076], the “cell survival, inhibitor alone (cytotoxic per se)” value in the series with L1210 cells [1] (1 μM inhibitor alone, L1210) worked out at 100%. Also, in the series with L1210 cells [1] (1 μM inhibitor, 10 μM nolatrexed + 1 μM thymidine), the “prevention of thymidine rescue from nolatrexed cytotoxicity” value is “partially blocked; also recorded: reduced but not blocked completely”. For the same compound, in the series with L1210 cells [1] (1 μM inhibitor, high 5-FU concentrations (30 and 100 μM), not significant at lower concentrations), the “potentiation of 5-FU cytotoxicity” value is recorded as “Significant potentiation”. For the same compound, the “EF50 (enhancement factor), 5-FU” value with L1210 cells [1] (setting [5]) stood at 1.1. Moreover, the “EF50 (enhancement factor), nolatrexed” value in the series on L1210 cells [1] (setting [5]) is given as 1.6. Moreover, in the series on L1210 cells [1] (LC90 alone/LC90 + 1 μM inhibitor), the “EF90 (enhancement factor), 5-FU” value came to 1.3. The “reduction of nolatrexed LC90” value in the series on L1210 cells [1] is on record as “> threefold”. Besides, in series [4] (AGP 5 mg ml-1, inhibitor 1 and 10 μM), the “effect of AGP on inhibition of thymidine uptake” value was “not significantly affected”. Also, the IC50 (commonly the midpoint of a concentration-inhibition curve) in series [4] (absence of AGP, point-to-point curve, L1210) is 250 nM. For the same compound, the “% inhibition of thymidine uptake” value in series [4] (inhibitor 1 μM + 5 mg ml-1 AGP, L1210) was 46%; in series [4] (inhibitor 1 μM, no AGP, 100 μM thymidine, L1210), 56%; in series [4] (inhibitor 10 μM + 5 mg ml-1 AGP, L1210), 89%; in series [4] (inhibitor 10 μM, no AGP, 100 μM thymidine, L1210), 96%. Moreover, in series [2] (L1210), the “type of inhibition of thymidine uptake” value is given as “mixed-type inhibition”. Moreover, in series [2], the Ki was determined as 100 nM. For the same compound, the “block of thymidine rescue from TS inhibitor cytotoxicity” value with human cancer cell lines was “can block thymidine rescue”.
As for `Cc1ccc2nc(N)[nH]c(=O)c2c1Sc1ccncc1.Cl.Cl` [Nolatrexed, 3,4-dihydro-2-amino-6-methyl-4-oxo-5-(4-pyridylthio)-quinazoline dihydrochloride], in the series on L1210 cells [1], the “effect of 1 μM thymidine on cytotoxic effect of 10 μM nolatrexed” value is reported as “completely prevented” and the CC50 was determined as 3.1 µM. In addition, the cells surviving in the series on L1210 cells [1] (10 μM nolatrexed alone, 16 h) is 10-20%.
Turning to `O=c1[nH]cc(F)c(=O)[nH]1` [5-FU, 5-fluorouracil], the CC50 in the series on L1210 cells [1] was 3.7 µM.
